Measured values published in patent US20030059483A1, “Color stable hypochlorous sanitizer and methods” (priority 1999, published 2003).

How the values were obtained:
Format in all cases: physicochemical
[1] = Dye and chlorine stability test, effect of pH; conditions: 1 ppm dye; for Initial Color/Appearance: additional formulations; for Initial Color/Appearance / Time needed for solution to become colorless: 100 ppm active chlorine; for Color/Appearance: initial 100 ppm chlorine
[2] = Color longevity at varying active chlorine and dye level, pH 5.8; conditions: for Initial Color/Appearance / Time needed for solution to become colorless: 1 ppm dye
[3] = Chlorine stability of acid sanitizer solutions; conditions: chlorine 12 ppm, pH 5.13

COc1cc(S(=O)(=O)[O-])c(C)cc1N=Nc1c(O)ccc2cc(S(=O)(=O)[O-])ccc12.[Na+].[Na+] [FD&C Red #40]
Initial Color/Appearance ([1]; pH buffered at 2): colorless
Initial Color/Appearance ([1]; pH buffered at 4): visible color
Initial Color/Appearance ([1]; pH buffered at 5.4): visible color
Initial Color/Appearance ([1]; pH buffered at 5.8): visible color
Initial Color/Appearance ([1]; pH buffered at 6): visible color
Initial Color/Appearance ([1]; pH buffered at 8): visible color
Initial Color/Appearance ([1]; pH buffered at 10): colorless
Initial Color/Appearance ([1]; pH buffered at 12): colorless
Color/Appearance ([1]; pH buffered at 2, 0.0 hours): color gone immediately
Time needed for solution to become colorless ([1]; pH buffered at 2): none
Color/Appearance ([1]; pH buffered at 2, 175 hours): no color
Time needed for solution to become colorless ([1]; pH buffered at 4): 2.5 h
Color/Appearance ([1]; pH buffered at 4, 2.5 hours): color gone
Color/Appearance ([1]; pH buffered at 4, 175 hours): no color
Time needed for solution to become colorless ([1]; pH buffered at 5.4): 15 h
Time needed for solution to become colorless ([1]; pH buffered at 5.8): 5.0 h
Time needed for solution to become colorless ([1]; pH buffered at 6): 4.0 h
Color/Appearance ([1]; pH buffered at 6, 5.0 hours): slightly visible
Color/Appearance ([1]; pH buffered at 6, 175 hours): no color
Time needed for solution to become colorless ([1]; pH buffered at 8): 0.25 h
Color/Appearance ([1]; pH buffered at 8, 0.25 hours): color gone
Color/Appearance ([1]; pH buffered at 8, 175 hours): no color
Color/Appearance ([1]; pH buffered at 10, 0.0 hours): color gone immediately
Time needed for solution to become colorless ([1]; pH buffered at 10): none
Color/Appearance ([1]; pH buffered at 10, 175 hours): no color
Color/Appearance ([1]; pH buffered at 12, 0.0 hours): color gone immediately
Time needed for solution to become colorless ([1]; pH buffered at 12): none
Color/Appearance ([1]; pH buffered at 12, 175 hours): no color
Initial Color/Appearance ([2]; 10 ppm available chlorine): visible
Time needed for solution to become colorless ([2]; 10 ppm available chlorine): more than 6.0 hours
Initial Color/Appearance ([2]; 30 ppm available chlorine): visible
Time needed for solution to become colorless ([2]; 30 ppm available chlorine): 6.0 h
Initial Color/Appearance ([2]; 50 ppm available chlorine): visible
Time needed for solution to become colorless ([2]; 50 ppm available chlorine): 5.0 h
Initial Color/Appearance ([2]; 80 ppm available chlorine): visible
Time needed for solution to become colorless ([2]; 80 ppm available chlorine): 4.5 h
Initial Color/Appearance ([2]; 100 ppm available chlorine): visible
Time needed for solution to become colorless ([2]; 100 ppm available chlorine): 3.0 h
relationship between dye concentration and color longevity ([2]; dye level 0.1 to 0.4 wt-%, 100 ppm available chlorine): linear relationship between dye concentration and color longevity

Chlorinated trisodium phosphate [Chlorinated TSP]
Chlorine (ppm) Conc. 0 Time ([3]; 0 time): 12.7 ppm
Chlorine (ppm) Conc. 4 Hours ([3]; 4 hours): 9.93 ppm
Chlorine (ppm) Conc. 24 Hours ([3]; 24 hours): 5.67 ppm
